ChEMBL document CHEMBL4725289, “Structure-activity relationship studies for the development of inhibitors of murine adipose triglyceride lipase (ATGL)” (Bioorg Med Chem, 2020)
Calls of active or inactive are those of the source. The rule behind the calls is not given here.

Columns and labels:
[1] = biological target: T1, Patatin-like phospholipase domain-containing protein 2 (Mus musculus, UniProt Q8BJ56); test: Inhibition of murine ATGL expressed in COS-7 cells; assay type: cell-based
T1 sequence (Q8BJ56 whole entry): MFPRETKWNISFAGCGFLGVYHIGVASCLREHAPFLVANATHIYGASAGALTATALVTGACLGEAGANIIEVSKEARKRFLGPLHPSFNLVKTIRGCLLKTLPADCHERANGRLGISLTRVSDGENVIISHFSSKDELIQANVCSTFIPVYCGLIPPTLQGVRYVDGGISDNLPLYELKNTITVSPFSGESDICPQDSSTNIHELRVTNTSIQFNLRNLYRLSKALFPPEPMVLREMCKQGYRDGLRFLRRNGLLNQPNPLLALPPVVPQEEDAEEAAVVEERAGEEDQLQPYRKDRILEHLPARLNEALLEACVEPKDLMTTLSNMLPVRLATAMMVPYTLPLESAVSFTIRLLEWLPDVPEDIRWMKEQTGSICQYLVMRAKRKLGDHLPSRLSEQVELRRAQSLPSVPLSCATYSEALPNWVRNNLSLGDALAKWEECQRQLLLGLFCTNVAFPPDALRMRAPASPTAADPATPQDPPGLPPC

[2] = biological target: T2, Patatin-like phospholipase domain-containing protein 2 (Mus musculus) (UniProt Q8BJ56); test: Inhibition of murine ATGL expressed in COS-7 cells at 200 uM relative to control; assay type: cell-based
T2 sequence (whole entry): T1 sequence (Q8BJ56 whole entry)

[3] = biological target: T1, Patatin-like phospholipase domain-containing protein 2; test: Inhibition of recombinant murine ATGL expressed in Escherichia coli XL-1 lysates; assay type: subcellular
[4] = biological target: T2, Patatin-like phospholipase domain-containing protein 2 (Mus musculus); test: Inhibition of recombinant murine ATGL expressed in Escherichia coli XL-1 lysates at 200 uM relative to control; assay type: subcellular
[5] = In vivo inhibition of ATGL in ad libitum fed mouse assessed as reduction in circulating fatty acid level at 200 uM administered via oral gavage measured after 8 hrs; assay type: functional
[6] = In vivo inhibition of ATGL in ad libitum fed mouse assessed as reduction in circulating glycerol level at 200 uM administered via oral gavage measured after 8 hrs; assay type: functional
[7] = In vivo inhibition of ATGL in 12 hrs fasted mouse assessed as reduction in circulating fatty acid level at 200 uM administered via oral gavage measured after 8 hrs; assay type: functional
[8] = In vivo inhibition of ATGL in 12 hrs fasted mouse assessed as reduction in circulating glycerol level at 200 uM administered via oral gavage measured after 8 hrs; assay type: functional
[9] = In vivo inhibition of ATGL in 12 hrs fasted mouse assessed as reduction in circulating triacylglycerol level at 200 uM administered via oral gavage measured after 8 hrs; assay type: functional
Mus musculus = test: In vivo inhibition of ATGL in 12 hrs fasted mouse assessed as reduction in circulating TG level at 200 uM administered via oral gavage in presence of poloxamer measured after 8 hrs; assay type: functional, organism-based
[10] = biological target: T1, Patatin-like phospholipase domain-containing protein 2; test: Inhibition of murine ATGL
[11] = biological target: T2, Patatin-like phospholipase domain-containing protein 2 (Mus musculus); test: Inhibition of murine ATGL at 200 uM relative to control

SMILES | IC50 [1] | inhibition [2] | also measured
CCOC(=O)c1cccc(-c2ccc(CN3CCN(S(C)(=O)=O)CC3)cc2)c1 | 100 µM | 68% | IC50 [3]: 100 µM; inhibition [4]: 68%
CN(C)c1ccc(-c2cccc([N+](=O)[O-])c2)cc1 | > 200 µM | 21% | –
CCNC(=O)c1cccc(-c2ccc(OCC)cc2)c1 | 90 µM | 62% | –
CCOc1ccc(-c2cccc(C(=O)N3CCCC3)c2)cc1 | 160 µM | 53% | –
CCOC(=O)c1cccc(-c2ccc(OCC)cc2)n1 | 60 µM | 79% | –
CCOC(=O)c1cccc(-c2ccc(C(C)=O)cc2)c1 | 200 µM | 36% | IC50 [3]: 200 µM; inhibition [4]: 17%
CCOC(=O)c1ccnc(-c2ccc(OCC)cc2)c1 | 80 µM | 87% | –
CN(C)C(=O)Nc1cccc(-c2ccc(N(C)C)cc2)c1 | < 5 µM | 98% | inhibition [4]: 99%; inhibition in vivo at 200 µM [5]: 27%; inhibition in vivo at 200 µM [6]: 23%; inhibition in vivo at 200 µM [7]: 27%; inhibition in vivo at 200 µM [8]: 26%; inhibition in vivo at 200 µM [9]: 37%; inhibition (Mus musculus): Active
CCOC(=O)c1cccc(-c2ccc3c(ccn3C)c2)c1 | 75 µM | 84% | –
CCOC(=O)c1cccc(-c2ccc(C(C)N3CCN(C)CC3)cc2)c1 (stereo not given) | 90 µM | 69% | IC50 [3]: 200 µM; inhibition [4]: 30%
CCOC(=O)c1cccc(-c2ccc(OCC)nc2)c1 | 130 µM | 68% | –
CCOC(=O)c1cccc(-c2ccc(CN3CCN(S(C)(=O)=O)CC3)o2)c1 | 100 µM | 66% | –
CCOc1ccc(-c2cccc(S(=O)(=O)N(C)C)c2)cc1 | 110 µM | 63% | –
CCOc1ccc(-c2cccc(C(=O)OCCOCCOC)c2)cc1 | > 200 µM | 43% | –
CCOc1ccc(-c2cccc(N)c2)cc1 | 100 µM | 65% | –
CCOC(=O)c1cccc(-c2ccncc2)c1 | > 200 µM | 40% | –
CCOC(=O)c1cccc(-c2ccc(CN(C)C)o2)c1 | 190 µM | 53% | –
CCOC(=O)c1ccc(-c2ccc(OCC)cc2)o1 | 50 µM | 93% | –
CCOC(=O)c1cccc(-c2ccsc2)c1 | 75 µM | 67% | –
CCOC(=O)c1cccc(-c2ccc([N+](=O)[O-])cc2)c1 | 95 µM | 63% | –
CCOC(=O)c1cccc(-c2ccc3c(c2)CCN3)c1 | 120 µM | 66% | –
CCOC(=O)c1cccc(-c2ccc(CN3CCN(C)CC3)o2)c1 | 120 µM | 67% | –
CCOC(=O)C1CCCC(c2ccc(OCC)cc2)N1 (stereo not given) | > 200 µM | 48% | –
CCOc1ccc(-n2cc(O)c(C(=O)OC)n2)cc1 | – | – | IC50 [10]: 130 µM; inhibition [11]: 64%
CCOC(=O)c1cc(-c2ccc(OCC)cc2)ccn1 | 105 µM | 72% | –

SMILES | IC50 [1] | inhibition [2] | also measured
CCOc1ccc(-c2cccc(C(=O)OCC(F)(F)F)c2)cc1 | 120 µM | 71% | –
CCOc1ccc(-c2cccc(C)c2)cc1 | 70 µM | 54% | –
CCOC(=O)c1cccc(-c2ccc(O)cc2)c1 | 100 µM | 77% | –
CCOc1ccc(-c2cccc(C(=O)Oc3ccc([N+](=O)[O-])cc3)c2)cc1 | 150 µM | 56% | –
CCCCCCOC(=O)c1cccc(-c2ccc(OCC)cc2)c1 | > 200 µM | 48% | –
CN(C)c1ccc(-c2cccc(N)c2)cc1 | 100 µM | 70% | –
CCCCOC(=O)c1cccc(-c2ccc(OCC)cc2)c1 | 100 µM | 61% | –
CCOC(=O)c1ccc(-c2ccc(OCC)cc2)[nH]1 | > 200 µM | 44% | –
CCOC(=O)c1cccc(-c2ccc(C)cc2)c1 | 140 µM | 63% | –
CCOC(=O)c1cccc(-c2ccc(OCC)c([N+](=O)[O-])c2)c1 | 200 µM | 44% | –
CCOc1ccc(-c2ccccc2)cc1 | > 200 µM | 35% | –
CCOc1ccc(-c2cccc(NC(=O)N(C)C)c2)cc1 | 70 µM | 68% | IC50 [3]: 9 µM; inhibition [4]: 83%
CCOc1ccc(-c2cccc([N+](=O)[O-])c2)cc1 | > 200 µM | 35% | –
CCOC(=O)c1cccc(-c2ccc(OCC)c(N)c2)c1 | 140 µM | 59% | –
CCOC(=O)c1cccc(-c2ccc(CN3CCCC3)cc2)c1 | > 200 µM | 33% | –
CCOC(=O)c1nn(-c2ccc(OCC)cc2)cc1OC | – | – | IC50 [10]: 90 µM; inhibition [11]: 63%
CN(C)c1ccc(-c2cccc(NC(=O)C(C)(C)C)c2)cc1 | > 200 µM | 25% | –
CCOC(=O)c1cccc(-c2ccc(C(C)N(C)C)cc2)c1 (stereo not given) | 200 µM | 50% | IC50 [3]: 200 µM; inhibition [4]: 9%
CCOC(=O)c1ccn(-c2ccc(OCC)cc2)n1 | – | – | inhibition [11]: 89%
CCOc1ccc(-c2cccc(C(=O)O)c2)cc1 | > 200 µM | 23% | –
CC(C)OC(=O)Nc1cccc(-c2ccc(N(C)C)cc2)c1 | 82 µM | 69% | –
CCOC(=O)c1cccc(-c2ccc(CN3CCCCC3)cc2)c1 | 75 µM | 68% | –
CCOc1ccc(-c2cccc(C(=O)NC)c2)cc1 | > 200 µM | 40% | –
CCOc1ccc(-c2cccc(S(=O)(=O)NC)c2)cc1 | 200 µM | 47% | –
CCOC(=O)c1cccc(-c2ccc(C(=O)CN(C)C)cc2)c1 | 200 µM | 20% | IC50 [3]: 200 µM; inhibition [4]: 4%

SMILES | IC50 [1] | inhibition [2] | also measured
CCOC(=O)N(C)c1cccc(-c2ccc(N(C)C)cc2)c1 | > 200 µM | 20% | –
CCOC(=O)c1nn(-c2ccc(OCC)cc2)cc1O | – | – | IC50 [10]: 120 µM; inhibition [11]: 67%
CCOC(=O)c1cncc(-c2ccc(OCC)cc2)c1 | 130 µM | 70% | –
CCOC(=O)c1cccc(-c2ccc(Br)cc2)c1 | – | – | IC50 [3]: > 200 µM; inhibition [4]: 34%
CN(C)C(=O)N(C)c1cccc(-c2ccc(N(C)C)cc2)c1 | 70 µM | 74% | –
CCOC(=O)c1cccc(-c2ccc(CN(C)C)cc2)c1 | 150 µM | 67% | –
CCNS(=O)(=O)c1cccc(-c2ccc(OCC)cc2)c1 | 200 µM | 46% | –
CN(C)c1ccc(-c2cccc(NC(=O)N3CCOCC3)c2)cc1 | > 200 µM | 31% | –
CCOC(=O)c1cccc(-c2cccs2)c1 | 90 µM | 55% | –
CC(C)COC(=O)Nc1cccc(-c2ccc(N(C)C)cc2)c1 | 22 µM | 90% | –
CCOC(=O)c1cccc(-c2ccc3[nH]ccc3c2)c1 | 60 µM | 80% | –
COC(=O)Nc1cccc(-c2ccc(N(C)C)cc2)c1 | 5 µM | 95% | –
CCOc1ccc(-n2cc(O)c(C(=O)O)n2)cc1 | – | – | IC50 [10]: > 200 µM; inhibition [11]: 15%
CCCCOC(=O)c1nn(-c2ccc(OCC)cc2)cc1O | – | – | IC50 [10]: 100 µM; inhibition [11]: 74%
CCOC(=O)c1cccc(-c2ccc(OCC)cc2)c1 | 50 µM | 87% | –
CN(C)c1ccc(-c2cccc(NC(=O)Oc3ccccc3)c2)cc1 | 73 µM | 75% | –
CCOc1ccc(-c2cccc(NC(C)=O)c2)cc1 | 200 µM | 52% | –
CCOC(=O)Nc1cccc(-c2ccc(N(C)C)cc2)c1 | 3 µM | 93% | –
CCOC(=O)c1ccc(-c2ccc(OCC)cc2)s1 | 70 µM | 81% | –
CN(C)c1ccc(-c2cccc(NC(=O)OCc3ccccc3)c2)cc1 | > 200 µM | 50% | –
CCOc1ccc(-c2cccc(C(=O)OCCOC)c2)cc1 | 70 µM | 89% | –
CCOC(=O)c1cccc(-c2ccccc2)c1 | 200 µM | 52% | –
CCOC(=O)c1cccc(-c2ccc(CN3CCN(C)CC3)cc2)c1 | > 200 µM | 26% | IC50 [3]: > 200 µM; inhibition [4]: 32%
CCOC(=O)c1cccc(-c2ccc(OC)cc2)c1 | 80 µM | 77% | –
CCOC(=O)c1cn(-c2ccc(OCC)cc2)nn1 | – | – | IC50 [3]: > 200 µM; inhibition [4]: 43%
